Values quoted from earlier work, collected in patent publication US6395721B1, “Low potency unpreserved sterile topical corticosteroid compositions for dermatitis” (priority 2000, dated 2002).

Test system: skin of human volunteers
Parameters: key to Ranking of Topical steroids for Psoriasis (potency group): I: Group 1 is the most potent; potency descends with each group to Group VII; III: potency descends with each group to Group VII; IV: potency descends with each group to Group VII; potency descends with each group to Group VII; potency descends with each group to Group VII; Group VII, which is least potent
Conditions: as worded for contemplated compositions; aldomethasone and desonide at 0.05%

Molecule | potency of corticosteroid (in words)
aldomethasone diproprionate | low potency
aldomethasone | low potency
CC1(C)O[C@@H]2C[C@H]3[C@@H]4CCC5=CC(=O)C=C[C@]5(C)[C@H]4[C@@H](O)C[C@]3(C)[C@]2(C(=O)CO)O1 [desonide] | intermediate potency

Same assay, conditions: rating in words; Cornell and Stoughton

Molecule | potency rating of steroid compositions on a scale of 1 to 7, with 7 being the least potent
aldomethasone diproprionate | Among the least potent steroids
CCCCC(=O)O[C@]1(C(=O)CO)CC[C@H]2[C@@H]3CCC4=CC(=O)CC[C@]4(C)[C@H]3[C@@H](O)C[C@@]21C [hydrocortisone valerate] | Among the least potent steroids
C[C@H]1C[C@H]2[C@@H]3CCC4=CC(=O)C=C[C@]4(C)[C@@]3(F)[C@@H](O)C[C@]2(C)[C@@]1(O)C(=O)CCl [Clobetasol] | among the most potent steroids
C[C@]12CCC(=O)C=C1CC[C@@H]1[C@@H]2C(=O)C[C@@]2(C)[C@H]1CC[C@]2(O)C(=O)CO [cortisone] | Among the least potent steroids
CCCC(=O)O[C@]1(C(=O)CO)CC[C@H]2[C@@H]3CCC4=CC(=O)CC[C@]4(C)[C@H]3[C@@H](O)C[C@@]21C [hydrocortisone butyrate] | Among the least potent steroids
CC1(C)O[C@@H]2C[C@H]3[C@@H]4CCC5=CC(=O)C=C[C@]5(C)[C@H]4[C@@H](O)C[C@]3(C)[C@]2(C(=O)CO)O1 [desonide] | Among the least potent steroids
C[C@]12CCC(=O)C=C1CC[C@@H]1[C@@H]2[C@@H](O)C[C@@]2(C)[C@H]1CC[C@]2(O)C(=O)CO [hydrocortisone] | Among the least potent steroids

Same assay, conditions: topical; no significant difference of agents within any given group

Molecule | Ranking of Topical steroids for Psoriasis (potency group)
C[C@]12C=CC(=O)C=C1CC[C@@H]1[C@@H]2[C@@H](O)C[C@@]2(C)[C@H]1CC[C@]2(O)C(=O)CO [prednisolone] | VII.
flumethalone | VII.
C[C@]12CCC(=O)C=C1CC[C@@H]1[C@@H]2[C@@H](O)C[C@@]2(C)[C@H]1CC[C@]2(O)C(=O)CO [hydrocortisone] | VII.

Test system: stripped skin
Conditions: applied to stripped skin, which develops erythema

Molecule | effect on erythema of stripped skin
C[C@]12CCC(=O)C=C1CC[C@@H]1[C@@H]2[C@@H](O)C[C@@]2(C)[C@H]1CC[C@]2(O)C(=O)CO [hydrocortisone] | develop blanching
